Measurements published in patent US7101878B1 (Agouron Pharmaceuticals, Inc., priority 1998, dated 2006).
Where two headings read alike, the source gives them in different places.

How the values were obtained:
[1] = target: T1, bovine GnRH receptor (Bos taurus, UniProt P32236); experiment: Radioligand binding, 125I-GnRH-A, bovine pituitary membranes
T1 construct: membranes were prepared from bovine pituitary; from tissue; host or cells: bovine pituitary
T1 sequence (P32236 1-328): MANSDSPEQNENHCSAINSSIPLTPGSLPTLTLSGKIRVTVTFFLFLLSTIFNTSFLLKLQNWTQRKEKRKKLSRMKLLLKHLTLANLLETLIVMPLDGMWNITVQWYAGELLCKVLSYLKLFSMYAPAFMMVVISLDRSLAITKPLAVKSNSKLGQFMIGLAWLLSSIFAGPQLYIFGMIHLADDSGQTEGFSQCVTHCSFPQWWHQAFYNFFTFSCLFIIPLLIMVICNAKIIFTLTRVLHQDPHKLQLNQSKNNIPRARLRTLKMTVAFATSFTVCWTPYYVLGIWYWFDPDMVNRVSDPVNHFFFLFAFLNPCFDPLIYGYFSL
Description: All compounds were diluted in 1% DMSO (final assay concentration) in binding assay buffer. […] Reactions were terminated by rapid filtration onto 96-well Packard GF/C filters soaked in 0.1% polyethyleneimine. Filters were washed three times with PBS buffer, dried and counted on a Packard Topcount by liquid scintillation counting.
Assay conditions were identical for assessing compound activities at other species. […] IC50 values for control peptides and test compounds were calculated utilizing GraphPad Prism™ software.
The reaction mixture was vortexed and incubated for 1 min at room temperature. After one min, the mixture was vortexed and allowed to incubate for an additional minute. 2 ml of 0.5 M acetic acid/1% BSA was added to the reaction tube and the mixture was added to a C18 Sep-Pak cartridge. The cartridge was washed with subsequent washes of 5 ml H2O and 5 ml 0.5M acetic acid and then eluted with 5×1 ml of 60% CH3CN/40% 0.5M acetic acid. The eluate was diluted with 3× volume of HPLC buffer A (0.1% TFA in H2O) and loaded onto a C18 column. […] The radioactive fractions (750 ed/fraction) are collected into clean polypropylene tubes containing 100 μl of 10% BSA. Fractions were assessed for biological activity by radioligand binding.

[2] = target: T2, mouse GnRH receptor (Mus musculus, UniProt Q01776); experiment: Radioligand binding, 125I-GnRH-A, 293 cells expressing mouse GnRH receptors
T2 construct: expressed in transfected cells; host or cells: 293 cells
T2 sequence (Q01776 1-327): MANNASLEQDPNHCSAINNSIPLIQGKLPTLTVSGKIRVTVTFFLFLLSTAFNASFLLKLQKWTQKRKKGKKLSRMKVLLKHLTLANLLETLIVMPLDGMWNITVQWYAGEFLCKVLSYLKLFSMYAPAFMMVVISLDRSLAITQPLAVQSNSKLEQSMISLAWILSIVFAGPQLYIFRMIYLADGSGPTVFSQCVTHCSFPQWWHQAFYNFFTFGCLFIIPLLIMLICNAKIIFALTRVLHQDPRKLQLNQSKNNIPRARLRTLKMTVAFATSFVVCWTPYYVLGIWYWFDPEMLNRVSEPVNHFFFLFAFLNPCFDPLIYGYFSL
Method in brief: (§1)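 Bound label captured on 0.1% polyethyleneimine-treated GF/C filters, washed three times with PBS, counted. IC50 derived; identical set-up for every species.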

[3] = target: T3, rat GnRH receptor (Rattus norvegicus, UniProt P30969); experiment: Radioligand binding, 125I-GnRH-A, rat pituitary membranes; parameters: membranes were prepared from rat pituitary; from tissue; host or cells: rat pituitary
T3 sequence (P30969 1-327): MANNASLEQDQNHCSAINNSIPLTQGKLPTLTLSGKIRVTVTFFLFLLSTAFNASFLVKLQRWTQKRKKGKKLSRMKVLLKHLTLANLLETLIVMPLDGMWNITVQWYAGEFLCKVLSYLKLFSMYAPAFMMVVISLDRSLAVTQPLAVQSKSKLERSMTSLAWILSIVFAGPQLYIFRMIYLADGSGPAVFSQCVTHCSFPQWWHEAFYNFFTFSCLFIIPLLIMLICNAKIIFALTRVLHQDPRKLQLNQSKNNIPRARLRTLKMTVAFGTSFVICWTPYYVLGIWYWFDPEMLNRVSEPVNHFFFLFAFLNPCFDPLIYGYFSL
Method in brief: as §1

[4] = target: T4, human GnRH receptor (Homo sapiens, UniProt P30968); experiment: Radioligand binding, 125I-GnRH-A displacement, membranes of HEK 293 cells with human GnRH receptor
T4 construct: expressed in transfected cells; host or cells: HEK 293 (hGnRH-R/293, from Dr. Stuart Sealfon)
T4 sequence (P30968 1-328): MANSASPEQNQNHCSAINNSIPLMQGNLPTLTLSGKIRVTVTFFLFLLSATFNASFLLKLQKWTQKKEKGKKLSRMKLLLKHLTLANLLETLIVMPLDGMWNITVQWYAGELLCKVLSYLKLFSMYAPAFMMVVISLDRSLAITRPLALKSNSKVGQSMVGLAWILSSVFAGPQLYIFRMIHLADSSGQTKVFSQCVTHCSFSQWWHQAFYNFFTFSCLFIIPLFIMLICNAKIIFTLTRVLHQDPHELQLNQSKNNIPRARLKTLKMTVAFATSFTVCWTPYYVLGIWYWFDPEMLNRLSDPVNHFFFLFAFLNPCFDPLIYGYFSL
Method in brief: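 Bound tracer was separated by filtration through polyethyleneimine-soaked GF/C filters and counted by liquid scintillation. IC50 from curve fitting; other species were tested under the same conditions.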

[5] = target: T5, hGnRH receptor (Homo sapiens, UniProt P30968); experiment: Total inositol phosphates measurement, 293 cells containing the hGnRH receptor; assay type: cell-based; conditions: for GnRH functional: no species or readout annotated
T5 construct: expressed in transfected cells; host or cells: HEK 293 (hGnRH-R/293, from Dr. Stuart Sealfon)
T5 sequence (P30968 1-328): T4 sequence (P30968 1-328)
Description: To assess the activity of the compounds as agonists or antagonists, an assay measuring accumulation of total inositol phosphates was employed. 293 cells containing the hGnRH receptor were plated onto 24-well plates (approximately 200,000 cells/well) using DMEM media. […] The medium was aspirated and the cells rinsed with serum-free DMEM. The medium was aspirated and the cells were then treated with test compounds or vehicle for 30 minutes at 37° C. […] The media was replaced with ice-cold 10 mM formic acid, which stopped the reaction and also served to extract cellular lipids. Inositol phosphates were separated by ion-exchange chromatography on Dowex columns, which were washed with 2.5 mL of 10 mM myoinositol and 10 mM formic acid. The columns were then washed with 5 mL of 60 mM sodium formate and […], and total inositol phosphates were eluted with 5 mL 1M ammonium formate, 0.1 M formic acid. The column eluates were added to liquid scintillation vials containing 15 ml of scintillation cocktail and were counted by liquid scintillation counting.
This cell line was provided by Dr. Stuart Sealfon, Mount Sinai Medical School New York, N.Y. These cells were grown in DMEM supplemented with 0.2 g/L G418 100 U/ml penicillin/streptomycin and 10% FBS. Both GGH3 and hGnRH-R/293 cells were utilized for both for both total inositol phosphate measurement and for microphysiometry assessment of compound efficacy.

[6] = Metabolism rate, pmol/min/mg at 1 μM, rat male; assay type: in vitro ADME; conditions: 1 μM compound
[7] = Metabolism rate, pmol/min/mg at 1 μM, human; assay type: in vitro ADME; conditions: 1 μM compound
[8] = Pharmacokinetic studies / bioavailability in rats; assay type: in vivo, rat; conditions: for half-life / Cmax / Tmax: rat, plasma; for Cmax / Tmax: po, p.o. 10 mg/kg; for Cmax / Tmax / Fp.o.: 5 mg/ml solution in 10% DMSO 10% cremophor 80% saline
[9] = Metabolism rate, pmol/min/mg at 1 μM, rat female; assay type: in vitro ADME; conditions: 1 μM compound
[10] = tested on: LH levels in castrated rats; experiment: Castrated male rat model, LH suppression; assay type: in vivo; conditions: 10 mg/kg iv
Description: Experimental Protocol: Male Sprague-Dawley (225-250 g) rats were castrated and allowed 10 days postoperative recovery. Ten days post castration animals were instrumented with indwelling femoral venous and arterial catheters to facilitate remote infusions and blood sampling. On the day of the experiment, animals were allowed to acclimate to the procedure room while residing in their home cage. Basal blood samples were drawn from all animals. Following basal sampling, either vehicle (10% DMSO, 10% cremophor/saline), Antide (1.0 μg) or compound 11 (10 mg/kg) was administered intravenously. Blood samples were drawn 10, 60, 90, 120, 180, 240 minutes after injections. Blood was centrifuged, serum collected and stored in −70° freezer until assayed. Serum samples were analyzed using DSL-4600 ACTIVE LH coated-tube immunoradiometric assay kit from Diagnostic Systems Laboratories, Inc.
Surgical removal of the gonads removes circulating testosterone and eliminates the negative feedback of testosterone on the hypothalamus. […] This model seems suitable for evaluating small molecule GnRH antagonists.
Male Sprague-Dawley ([…]) rats were castrated via the scrotal approach under halothane anesthesia. Animals were allowed 14 days post operative recovery prior to study. Thirteen days following castration, animals were anesthetized with halothane and instrumented with indwelling jugular vein cannula. Details of the cannulation procedure have been described previously {Harms and Ojeda, 1974)}. On study day, animals were allowed to acclimate to the procedure room while residing in their home cage. Basal blood samples were drawn from all animals. Immediately following basal sampling, vehicle or test compounds were administered by various routes. The routes of administration employed were intravenous (iv), intramuscular (im), intraperitoneal (ip), subcutaneous (sc) and oral (po). Blood samples were drawn into heparin containing tubes at multiple time points post treatment. Blood was centrifuged immediately, plasma collected and stored in −20° freezer until assayed. Plasma samples were analyzed using DSL-4600 ACTIVE LH coated-tube immunoradiometric assay kit from Diagnostic Systems Laboratories, Inc.
Formulation #1 (denoted with superscript 1): 10% DMSO, 10% Cremophor EL and 80% physiological saline.
Formulation #2 (denoted with superscript 2): 10% Cremophor EL and 90% physiological saline.

[11] = second value marked * (mostly in parentheses), asterisk not explained, read-out: hGnRH IC50, value marked *

| Compound | IC50 ([1]; read-out: bGnRH IC50) | IC50 ([2]; read-out: mGnRH IC50) | IC50 ([3]; read-out: rGnRH IC50) | IC50 ([4]; read-out: hGnRH IC50) | GnRH functional [5] | Rat male pmol/min/mg 1 μM [6] | Human pmol/min/mg 1 μM [7] | Rat female pmol/min/mg 1 μM [9] | Cmax ([8]; female, 10 mg/kg, rat female) | Tmax ([8]; female, 10 mg/kg, rat female) | half-life ([8]; female, rat female) | Fp.o. ([8]; rat female) | further results |
| --- | --- | --- | --- | --- | --- | --- | --- | --- | --- | --- | --- | --- | --- |
| CCOC(=O)[C@H]1CC[C@H](CNC(=O)c2ccc(Cc3cc4c(cc3C)C(C)(C)CCC4(C)C)o2)CC1 [Compound 31] | 8.9 µM | 1.88 µM | 2.8 µM | 0.14 µM | Antag- onist | – | – | – | – | – | – | – | – |
| Cc1cc2c(cc1Cc1ccc(C(=O)NCC3CCCCC3)o1)C(C)(C)CCC2(C)C [Compound 36] | 12.5 µM | 3.8 µM | 2.9 µM | 0.215 µM | Antag- onist | – | – | – | – | – | – | – | – |
| Cc1cc2c(cc1Cc1ccc(C(=O)NCC3CCC(CNC(=N)N)CC3)o1)C(C)(C)CCC2(C)C (stereo not drawn) [Compound 9] | – | 2.3 µM | 0.68 µM | 0.22 µM | – | – | – | – | – | – | – | – | IC50 ([1]; means ± SE of at least three experiments performed in duplicate, read-out: Bovine IC50): 3.8 ± 0.22 µM; IC50 ([2]; means ± SE of at least three experiments performed in duplicate, read-out: Mouse IC50): 2.3 ± 0.46 µM; IC50 ([3]; means ± SE of at least three experiments performed in duplicate, read-out: Rat IC50): 0.68 ± 0.12 µM; IC50 ([4]; means ± SE of at least three experiments performed in duplicate, read-out: Human IC50): 0.22 ± 0.033 µM; IC50 [4, 11]: 0.04 µM; Kb [5]: 0.03 µM |
| Cc1cc2c(cc1Cc1ccc(C(=O)NC[C@H]3CC[C@@H](CNC(=N)N)CC3)o1)C(C)(C)CCC2(C)C [Compound 23] | 2.83 µM | 2.1 µM | 0.73 µM | 0.22 µM | Antag- onist | 141 pmol/min/mg | 263 pmol/min/mg | – | – | – | – | – | half-life ([8]; male, iv, 10 mg/kg, rat male): 0.8 h; IC50 [4, 11]: 0.04 µM |
| COc1cccc(OC)c1NC(=O)c1ccc(Cc2c(C)c(C)c(Br)c(C)c2C)o1 [Compound 226] | – | 0.72 µM | 2.13 µM | 0.24 µM | – | 990 pmol/min/mg | 369 pmol/min/mg | 173 pmol/min/mg | 420 nM | 1 to 5 h | 4.6 h | 34% (10 mg/kg)^10 | – |
| COc1cccc(OC)c1NC(=O)c1ccc(Cc2cc(C(C)(C)C)ccc2C)o1 [Compound 206] | – | 0.083 µM | 0.023 µM | 0.052 µM | – | 1794 pmol/min/mg | 689 pmol/min/mg | 330 pmol/min/mg | – | – | – | – | % Max LH Suppression [10]: 51%; time of % Max LH Suppression [10]: 1 h |
| COc1cc(NS(C)(=O)=O)c(NC(=O)c2ccc(Cc3cc4c(cc3C)C(C)(C)CCC4(C)C)o2)c(OC)c1 [Compound 228] | – | 0.014 µM | 0.057 µM | 0.027 µM | – | 320 pmol/min/mg | 641 pmol/min/mg | 227 pmol/min/mg | 70 nM | 0.5 h | 2.4 h | 2% (10 mg/kg)^10 | – |
| COc1cc(C)c(Cl)c(C)c1Cc1ccc(C(=O)Nc2c(OC)cccc2OC)o1 [Compound 233] | – | 0.068 µM | 0.051 µM | 0.06 µM | – | 2988 pmol/min/mg | 773 pmol/min/mg | 338 pmol/min/mg | 340 nM | 1 h | 1.4 h | 34% (10 mg/kg)^10 | – |
